Our source for the IC50 and inhibition values is ChEMBL document CHEMBL1139589, “In vitro antiproliferative activity against human colon cancer cell lines of representative 4-thiazolidinones. Part I” (Bioorg Med Chem Lett, 2005).

A short description of test [1]: Inhibition of growth of HCT116 cell line after 96 hours of exposure time with the compound dissolved in DMSO. Format: functional, cell-based. The following applies: Homo sapiens, HCT-116, 96 h.
The test system of test [2] is DLD-1. As to the kind of experiment: Inhibition of growth of DLD-1 cell line after 72+72 hours of exposure time with the compound dissolved in DMSO. It is filed as functional, cell-based. Conditions: Homo sapiens, DLD-1, 72 h.
In test [3] the test system is HCT-8. Description: Inhibition of growth of HCT-8 cell line after 96 hours of exposure time with the compound dissolved in DMSO. It is filed as functional, cell-based. Conditions: Homo sapiens, HCT-8, 96 h.
Test [4] concerns DLD-1. As to the kind of experiment: Inhibition of growth of DLD-1 cell line after 72 hours of exposure time with the compound dissolved in DMSO. It is filed as functional, cell-based. Conditions: Homo sapiens, DLD-1, 72 h.
In test [5] the test system is HT-29. Description: Inhibition of growth of HT-29 cell line after 72+72 hours of exposure time with the compound dissolved in DMSO. Format: functional, cell-based. Conditions: Homo sapiens, HT-29, 72 h.
Test [6] relates to HT-29. As to the kind of experiment: Inhibition of growth of HT-29 cell line after 96 hours of exposure time with the compound dissolved in DMSO. The following applies: Homo sapiens, HT-29, 96 h. It is filed as functional, cell-based.
Test [7] relates to HCT-8. As to the kind of experiment: Inhibition of growth of HCT-8 cell line after 72 hours of exposure time with the compound dissolved in DMSO. It is filed as functional, cell-based. Conditions: Homo sapiens, HCT-8, 72 h.
The nature of test [8]: Inhibition of growth of H630 cell line after 96 hours of exposure time with the compound dissolved in DMSO. It is filed as functional, cell-based. Conditions: Homo sapiens, NCI-H630, 96 h.
Test [9] can be described thus: Inhibition of growth of H630 cell line after 72 hours of exposure time with the compound dissolved in DMSO. Format: functional, cell-based. The following applies: Homo sapiens, NCI-H630, 72 h.
The test system of test [10] is HT-29. As to the kind of experiment: Inhibition of growth of HT-29 cell line after 24+72 hours of exposure time with the compound dissolved in DMSO. The following applies: Homo sapiens, HT-29, 72 h. Format: functional, cell-based.
The target in test [11] is T1, Prostaglandin G/H synthase 2 (Homo sapiens) (UniProt P35354).
T1 sequence (whole entry): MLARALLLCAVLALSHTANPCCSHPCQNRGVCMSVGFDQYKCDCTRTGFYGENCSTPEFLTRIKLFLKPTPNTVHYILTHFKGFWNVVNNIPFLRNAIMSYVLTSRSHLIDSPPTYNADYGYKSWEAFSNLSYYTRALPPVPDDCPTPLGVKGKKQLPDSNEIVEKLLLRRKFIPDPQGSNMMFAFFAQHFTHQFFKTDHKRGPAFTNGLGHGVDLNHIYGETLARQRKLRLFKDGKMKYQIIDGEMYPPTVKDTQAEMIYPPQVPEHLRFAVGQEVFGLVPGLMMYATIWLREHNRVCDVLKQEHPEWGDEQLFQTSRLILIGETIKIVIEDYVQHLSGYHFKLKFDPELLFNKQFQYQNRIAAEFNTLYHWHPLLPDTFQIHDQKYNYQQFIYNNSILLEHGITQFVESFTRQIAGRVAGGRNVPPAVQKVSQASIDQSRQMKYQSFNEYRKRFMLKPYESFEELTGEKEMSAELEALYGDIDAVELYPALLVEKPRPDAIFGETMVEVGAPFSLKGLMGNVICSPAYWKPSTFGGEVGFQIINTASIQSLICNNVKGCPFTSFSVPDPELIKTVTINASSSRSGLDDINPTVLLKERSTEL
The following applies: at 10 µM.
Description: Percentage inhibition activity at a concentration of 10 uM against cyclooxygenase 2 with the compound dissolved in DMSO

The nature of test [12]: Inhibition of growth of HCT116 cell line after 72+72 hours of exposure time with the compound dissolved in DMSO. The following applies: Homo sapiens, HCT-116, 72 h. It is filed as functional, cell-based.
The subject of test [13] is DLD-1. Description: Inhibition of growth of DLD-1 cell line after 24+72 hours of exposure time with the compound dissolved in DMSO. The following applies: Homo sapiens, DLD-1, 72 h. Format: functional, cell-based.
The target in test [14] is T2, Prostaglandin G/H synthase 1 (Homo sapiens, UniProt P23219). The following applies: at 10 µM.
Description: Percentage inhibition activity at a concentration of 10 uM against cyclooxygenase 1 with the compound dissolved in DMSO
The subject of test [15] is DLD-1. As to the kind of experiment: Inhibition of growth of DLD-1 cell line after 96 hours of exposure time with the compound dissolved in DMSO. Format: functional, cell-based. The following applies: Homo sapiens, DLD-1, 96 h.
Test [16] can be described thus: Inhibition of growth of HCT116 cell line after 24+72 hours of exposure time with the compound dissolved in DMSO. Conditions: Homo sapiens, HCT-116, 72 h. It is filed as functional, cell-based.
The subject of test [17] is HT-29. As to the kind of experiment: Inhibition of growth of HT-29 cell line after 72 hours of exposure time with the compound dissolved in DMSO. It is filed as functional, cell-based. Conditions: Homo sapiens, HT-29, 72 h.
In another test the test system is HCT-116. Description: Inhibition of growth of HCT116 cell line after 72 hours of exposure time with the compound dissolved in DMSO. The following applies: Homo sapiens, HCT-116, 72 h. It is filed as functional, cell-based.
In test [18] the target is T2, Prostaglandin G/H synthase 1. Description: In vitro inhibition activity against cyclooxygenase 1 with the compound dissolved in DMSO.
For test [19], the target named is T3, Prostaglandin G/H synthase 2 (Homo sapiens, UniProt P35354).
T3 sequence (P35354 whole entry): T1 sequence (whole entry)
Description: In vitro inhibition activity against cyclooxygenase 2 with the compound dissolved in DMSO.

T2 sequence (P23219 whole entry): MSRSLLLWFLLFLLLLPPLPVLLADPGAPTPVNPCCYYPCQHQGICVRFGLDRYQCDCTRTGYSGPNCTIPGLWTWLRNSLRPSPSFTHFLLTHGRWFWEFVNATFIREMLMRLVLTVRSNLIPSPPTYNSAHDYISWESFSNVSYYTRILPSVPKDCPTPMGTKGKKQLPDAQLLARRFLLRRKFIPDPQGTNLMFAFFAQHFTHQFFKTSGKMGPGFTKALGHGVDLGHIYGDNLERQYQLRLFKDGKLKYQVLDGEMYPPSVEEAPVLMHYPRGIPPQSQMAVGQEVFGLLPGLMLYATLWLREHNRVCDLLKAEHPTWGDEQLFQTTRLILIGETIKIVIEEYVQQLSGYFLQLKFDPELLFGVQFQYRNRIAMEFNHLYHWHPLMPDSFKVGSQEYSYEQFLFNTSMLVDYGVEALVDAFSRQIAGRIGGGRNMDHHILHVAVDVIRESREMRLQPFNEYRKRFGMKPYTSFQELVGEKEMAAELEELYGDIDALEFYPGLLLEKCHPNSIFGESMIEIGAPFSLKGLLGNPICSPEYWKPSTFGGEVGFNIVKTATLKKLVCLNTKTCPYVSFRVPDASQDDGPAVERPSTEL

As to `O=C1NC(=O)/C(=C/c2cccc(C(F)(F)F)c2)S1`, the IC50 in test [1] came out at 45.5 µM; in the test on DLD-1 [2], 31.4 µM; in the test on HCT-8 [3] it was 82.2 µM; with DLD-1 [4], 37.4 µM; with HT-29 [5], 31.4 µM; in the test on HT-29 [6], 59.7 µM. For the same compound, the IC50 in the test on HCT-8 [7] was found to be 100 µM; in [8], 83.2 µM; in [9] it was 97.6 µM; with HT-29 [10] it was 71.7 µM; in test [12] it was 36.8 µM; in the test with DLD-1 [13], 40.1 µM. The half-maximal inhibitory concentration (IC50) in the test with DLD-1 [15] came out at 17.8 µM; in test [16] it was 91.7 µM; in the test with HT-29 [17] it was 38.8 µM; in the test with HCT-116 it was 48.8 µM. Also, the inhibition in [11] and in test [14] was 0% in each case.
As for `COc1ccc(C2SCC(=O)N2CCN2C(=O)CSC2c2ccc(OC)cc2)cc1` (stereo not given), the results for the IC50 in [18] and in [19] were 53.7 µM and 1.12 µM, respectively.
For `CCCN1C(=O)CS/C1=N/c1ccccc1`, the inhibition worked out at 0% in test [11] and 8% in [14].
Regarding `CCCN1C(=O)/C(=C/c2cccc(OC)c2)S/C1=N/c1ccccc1`, the IC50 in [1] was 34.2 µM; in the test on DLD-1 [2] it was above 100 µM; in the test on HCT-8 [3], above 100 µM; with DLD-1 [4], above 100 µM; in the test on HT-29 [5] it was 36.2 µM; in the test with HT-29 [6], 23.4 µM. Further, the IC50 in the test with HCT-8 [7] was above 100 µM; in test [8], above 100 µM; in [9], above 100 µM; in the test with HT-29 [10], 92.8 µM; in [12], above 100 µM; with DLD-1 [13], above 100 µM. The IC50 was 13.1 µM in the test with DLD-1 [15], above 100 µM in test [16], 64.1 µM in the test on HT-29 [17] and above 100 µM in the test on HCT-116. For the same compound, the results for the inhibition in test [11] and in test [14] were 24% and 0%, respectively.

By IC50 is commonly meant the concentration at which inhibition is half-maximal. The low end stands for higher potency, the high end for lower potency. What is called inhibition is the drop in the measured response relative to a control, in per cent. A high value points to a strong effect.
